From ChEMBL document CHEMBL3045544, “Synthesis, antimicrobial and antioxidant activities of some new indole derivatives containing pyridopyrimidine and pyrazolopyridine moieties” (Med Chem Res, 2013)

Tests used:
Aspergillus oryzae = assay: Antimicrobial activity against Aspergillus oryzae MTCC 3567 assessed as diameter of growth inhibition zone at 500 ug/ml after 72 hr by cup-plate method; type: functional; conditions: MTCC 3567, 72 h, read-out: DIZ
Escherichia coli = assay: Antimicrobial activity against Escherichia coli MTCC 723 assessed as diameter of growth inhibition zone at 500 ug/ml after 24 hr by cup-plate method; type: functional; conditions: MTCC 723, 24 h, read-out: DIZ
Staphylococcus aureus = assay: Antimicrobial activity against Staphylococcus aureus ATCC 29513 assessed as diameter of growth inhibition zone at 500 ug/ml after 24 hr by cup-plate method; type: functional; conditions: ATCC 29513, 24 h, read-out: DIZ
Klebsiella pneumoniae = assay: Antimicrobial activity against Klebsiella pneumoniae NCTC 13368 assessed as diameter of growth inhibition zone at 500 ug/ml after 24 hr by cup-plate method; type: functional; conditions: NCTC 13368, 24 h, read-out: DIZ
Aspergillus niger = assay: Antimicrobial activity against Aspergillus niger MTCC 281 assessed as diameter of growth inhibition zone at 500 ug/ml after 72 hr by cup-plate method; type: functional; conditions: MTCC 281, 72 h, read-out: DIZ
Pseudomonas aeruginosa = assay: Antimicrobial activity against Pseudomonas aeruginosa MTCC 1688 assessed as diameter of growth inhibition zone at 500 ug/ml after 24 hr by cup-plate method; type: functional; conditions: MTCC 1688, 24 h, read-out: DIZ
Aspergillus flavus = assay: Antimicrobial activity against Aspergillus flavus MTCC 1973 assessed as diameter of growth inhibition zone at 500 ug/ml after 72 hr by cup-plate method; type: functional; conditions: MTCC 1973, 72 h, read-out: DIZ
Aspergillus terreus = assay: Antimicrobial activity against Aspergillus terreus MTCC 1782 assessed as diameter of growth inhibition zone at 500 ug/ml after 72 hr by cup-plate method; type: functional; conditions: MTCC 1782, 72 h, read-out: DIZ
[1] = Metal chelating activity of the compound assessed as inhibition of ferrozine Fe2+ complex formation at 25 to 100 ug/ml after 10 min by spectrophotometric analysis; type: physicochemical
[2] = system: Radical scavenging activity; assay: Antioxidant activity assessed as DPPH radical scavenging activity at 50 ug/ml by spectrophotometric analysis; type: functional
[3] = system: Radical scavenging activity; assay: Antioxidant activity assessed as DPPH radical scavenging activity at 75 ug/ml by spectrophotometric analysis; type: functional

Row | SMILES | zone of inhibition at 500 µg/mL (Aspergillus oryzae) [mm] | zone of inhibition at 500 µg/mL (Escherichia coli) [mm] | zone of inhibition at 500 µg/mL (Staphylococcus aureus) [mm] | zone of inhibition at 500 µg/mL (Klebsiella pneumoniae) [mm] | zone of inhibition at 500 µg/mL (Aspergillus niger) [mm] | zone of inhibition at 500 µg/mL (Pseudomonas aeruginosa) [mm] | zone of inhibition at 500 µg/mL (Aspergillus flavus) [mm] | zone of inhibition at 500 µg/mL (Aspergillus terreus) [mm] | inhibition (INH) [1] | Activity [2] [%] | Activity [3] [%]
1 | Cc1ccc2[nH]c(-c3ccccc3)c(-c3cc(-c4ccc(Cl)cc4)nc4ncnc(N)c34)c2c1 | 8 | 6 | 8 | 10 | 10 | 11 | 11 | 5 | – | – | –
2 | Nc1n[nH]c2nc(-c3ccc(Cl)cc3)cc(-c3c(-c4ccccc4)[nH]c4ccccc34)c12 | 10 | 10 | 14 | 10 | 10 | 8 | 11 | 8 | Active | – | –
3 | Cc1ccc(-c2cc(-c3c(-c4ccccc4)[nH]c4ccccc34)c3c(N)ncnc3n2)cc1 | 10 | 10 | 11 | 11 | 10 | 10 | 8 | 8 | – | – | –
4 | CN[C@@H]1[C@H](O[C@H]2[C@H](O[C@H]3[C@H](O)[C@@H](O)[C@H](N=C(N)N)[C@@H](O)[C@@H]3N=C(N)N)O[C@@H](C)[C@]2(O)C=O)O[C@@H](CO)[C@H](O)[C@H]1O [STREPTOMYCIN] | – | 13 | 13 | 13 | – | 13 | – | – | – | – | –
5 | Cc1ccc2[nH]c(-c3ccccc3)c(-c3cc(-c4ccc(Cl)cc4)nc4nc[nH]c(=O)c34)c2c1 | 8 | 8 | 9 | 6 | 11 | 8 | 8 | 9 | – | 72.7 | –
6 | Cc1ccc2[nH]c(-c3ccccc3)c(-c3cc(-c4ccc(Cl)cc4)nc4[nH]nc(N)c34)c2c1 | 8 | 7 | 10 | 10 | 10 | 8 | 11 | 2 | – | – | –
7 | Cc1ccc(-c2cc(-c3c(-c4ccccc4)[nH]c4ccc(C)cc34)c3c(N)n[nH]c3n2)cc1 | 3 | 10 | 11 | 5 | 10 | 6 | 11 | 9 | – | – | –
8 | Nc1n[nH]c2nc(-c3ccccc3)cc(-c3c(-c4ccccc4)[nH]c4ccccc34)c12 | 12 | 10 | 8 | 10 | 10 | 11 | 6 | 8 | – | 75.5 | –
9 | Cc1ccc(-c2cc(-c3c(-c4ccccc4)[nH]c4ccc(C)cc34)c3c(N)ncnc3n2)cc1 | 8 | 5 | 10 | 6 | 10 | 5 | 5 | 5 | – | – | –
10 | O=c1[nH]cnc2nc(-c3ccccc3)cc(-c3c(-c4ccccc4)[nH]c4ccccc34)c12 | 10 | 10 | 2 | 10 | 8 | 10 | 11 | 8 | Active | – | –
11 | Cc1ccc(-c2cc(-c3c(-c4ccccc4)[nH]c4ccccc34)c3c(N)n[nH]c3n2)cc1 | 10 | 10 | 11 | 9 | 5 | 9 | 8 | 2 | – | – | –
12 | O=c1[nH]cnc2nc(-c3ccc(Cl)cc3)cc(-c3c(-c4ccccc4)[nH]c4ccccc34)c12 | 10 | 10 | 10 | 8 | 10 | 2 | 11 | 11 | – | – | –
13 | OC(Cn1cncn1)(Cn1cncn1)c1ccc(F)cc1F [FLUCONAZOLE] | 14 | – | – | – | 14 | – | 14 | 14 | – | – | –
14 | Nc1n[nH]c2nc(-c3ccccc3)cc(-c3c(-c4ccccc4)[nH]c4ccc(Cl)cc34)c12 | 10 | 8 | 12 | 13 | 5 | 5 | 10 | 14 | – | – | –
15 | Nc1n[nH]c2nc(-c3ccc(Cl)cc3)cc(-c3c(-c4ccccc4)[nH]c4ccc(Cl)cc34)c12 | 10 | 10 | 10 | 11 | 6 | 6 | 8 | 10 | – | – | 73.5
16 | Cc1ccc(-c2cc(-c3c(-c4ccccc4)[nH]c4ccc(Cl)cc34)c3c(N)ncnc3n2)cc1 | 5 | 9 | 10 | 9 | 8 | 9 | 10 | 4 | – | – | –
17 | Cc1ccc2[nH]c(-c3ccccc3)c(-c3cc(-c4ccccc4)nc4nc[nH]c(=O)c34)c2c1 | 8 | 5 | 6 | 9 | 9 | 10 | 10 | 10 | – | – | –
18 | Nc1ncnc2nc(-c3ccccc3)cc(-c3c(-c4ccccc4)[nH]c4ccc(Cl)cc34)c12 | 10 | 9 | 10 | 5 | 10 | 8 | 8 | 5 | – | 78 | –
19 | Cc1ccc(-c2cc(-c3c(-c4ccccc4)[nH]c4ccccc34)c3c(=O)[nH]cnc3n2)cc1 | 6 | 10 | 8 | 11 | 6 | 10 | 5 | 10 | – | – | –
20 | Nc1ncnc2nc(-c3ccc(Cl)cc3)cc(-c3c(-c4ccccc4)[nH]c4ccc(Cl)cc34)c12 | 8 | 11 | 12 | 10 | 8 | 11 | 12 | 8 | – | – | –
21 | O=c1[nH]cnc2nc(-c3ccc(Cl)cc3)cc(-c3c(-c4ccccc4)[nH]c4ccc(Cl)cc34)c12 | 14 | 11 | 11 | 11 | 10 | 13 | 3 | 8 | Active | – | –
22 | Cc1ccc2[nH]c(-c3ccccc3)c(-c3cc(-c4ccccc4)nc4ncnc(N)c34)c2c1 | 6 | 8 | 10 | 6 | 8 | 5 | 11 | 10 | – | – | –
23 | Nc1ncnc2nc(-c3ccccc3)cc(-c3c(-c4ccccc4)[nH]c4ccccc34)c12 | 9 | 5 | 10 | 10 | 10 | 9 | 10 | 5 | – | – | –
